Assay results reported in article PMC8620715, “Biological Activity of Triazolopyrimidine Copper(II) Complexes Modulated by an Auxiliary N-N-Chelating Heterocycle Ligands” (Molecules, 2021).
Like-named read-outs stand apart in the source and are kept apart here.

How the values were obtained:
E. coli 25922 [1] = assay: Biofilm formation on polystyrene (crystal violet), MBEC; format: cell-based, Escherichia coli; conditions: E. coli 25922, biofilm
Method: (§1) The antibacterial assays were carried out using two Gram-negative (Escherichia coli ATCC 25922, Pseudomonas aeruginosa ATCC 27853) and two Gram-positive (Staphylococcus aureus ATCC 25923, MRSA (meticillin-Resistant S. aureus) 388 (ATCC, American Type Culture Collection) bacteria.
(§2) The method for assessment of biofilm formation on polystyrene microtiter plates was based on previously published protocols. The absorbance at 490 nm was measured with an Apollo LB 911ELISA (Berthold Technologies GmbH & Co. KG, Waltham, MA, USA) reader. The minimal biofilm-eradication concentration (MBEC) was defined as the lowest concentration of antibiotics required to eradicate the biofilm. All experiments were performed in triplicate.

P. aeruginosa 27853 = assay: as above; format: cell-based, Pseudomonas aeruginosa; conditions: P. aeruginosa 27853, biofilm
Method: as §1, §2

plasmid pRSII325 = assay: Nuclease activity assay (gel electrophoresis); format: biochemical; conditions: 37 °C; for DNA cleavage in the presence of H2O2: 0.1 and 0.5 mM complex + 1 mM H2O2, 1 h; for DNA cleavage in the presence of ascorbate: 0.1 and 0.5 mM complex + 1 mM ascorbate; for DNA cleavage in the presence of ascorbate / DNA cleavage, complex alone: 1 h; for DNA cleavage, complex alone: 0.1 and 0.5 mM
Method: To investigate the DNA cleavage activity of the two Cu(II) complexes, plasmidial DNA was incubated with (1) and (2), both in the absence or in the presence of activating agents, such as H2O2 or ascorbate. Exposure of DNA to the Cu(II) complexes in the presence of H2O2 exploits the CuII/III redox couple, while in the presence of ascorbate, the CuI/II redox couple is exploited. The nuclease activity of copper(II) complexes (1) and (2) was tested on plasmid pRSII325, which is a 6835 bp (base pair) circular plasmid. Gel electrophoresis of purified pRSII325 identified two main bands belonging to the supercoiled (SC) plasmid, which migrates faster, and the nicked-circular (NC) plasmid, which migrates slower (Figure 12, lane 1).
The nuclease activity of the compounds was determined using plasmid […] DNA, which was a gift from Steven Haase (Addgene plasmid #35467, 6835 base pairs). The plasmid was amplified in Escherichia coli by transforming One Shot® TOP10 chemically competent E. coli (Invitrogen, Thermo Fisher Scientific). The plasmid was isolated from positive colonies using a PureLink™ HiPure Plasmid Miniprep Kit (Invitrogen, Thermo Fisher Scientific). Plasmid (200 ng/sample) was exposed to complexes (1) and (2) in the presence of 1 mM hydrogen peroxide (to exploit the Cu(II/III) redox couple) or 1 mM ascorbic acid (to exploit the Cu(I/II) redox couple). The DNA cleavage experiments were done in a 9/1 (v/v) ratio of 50 mM Tris-HCl, pH 8, and DMSO. The samples were incubated for 1 h at 37 °C before a bromophenol blue/xylene cyanol-based loading dye (Roth, Germany) was added. The samples were loaded onto a 1% (w/v) agarose gel containing 1 μg/mL EtBr in 1 × TBE (Tris–boric acid–EDTA) buffer. Electrophoresis was performed at 50 V for 60 min in 1 × TBE buffer. The images of the fluorescent ethidium bromide-stained gels were captured using a gel documentation system (Doc-Print II, VilberLourmat, France). The cleavage experiments were done three times, with similar results. One representative gel is shown.

[2] = tested on: BJ normal cell line (human fibroblast cells); assay: MTT cell viability assay, BJ normal cells; format: cell-based; conditions: for IC50 / reduction of BJ cell viability at the highest concentration: BJ
Method: Human fibroblast cells (BJ—ATCC CRL-2522, USA) were grown in minimal essential medium (MEM) supplemented with 2 mM L-Glutamine, 10% fetal calf serum (FCS), 100 units/mL of penicillin, and 100 µg/mL of streptomycin at 37 °C in a humidified incubator under an atmosphere containing 5% CO2. Mouse melanoma cells (B16—ATCC CRL—6475, USA) were grown in DMEM (Dulbecco’s Modified Eagle Medium) supplemented with similar reagents as MEM. All cell cultivation media and reagents were purchased from Biochrom AG (Berlin, Germany) and Sigma-Aldrich (Darmstadt, Germany).
Cell viability was evaluated using 3-(4,5-dimethylthiazol-2-yl)-2,5-diphenyltetrazolium bromide (MTT) assay as described previously. First, the cells were seeded in 96-well plates (20000 cells/well) and cultured for 24 h in medium. […] The negative control was represented by cells cultivated in a medium without the investigated compounds. Following incubation, the medium was changed, and the MTT solution was added to each well to a final concentration of 1 mg/mL and incubated for an additional 4 h, at 37 °C. Finally, the medium was collected, and DMSO was used to dissolve the insoluble formazan product. The absorbance of the samples was recorded at 570 nm using a plate reader Mithras 940 (Berthold). The data were corrected for the background, and the percentage of viable cells was obtained using the equation:Cell viability = [(A570 of treated cells)/(A570 of untreated cells)] × 100%(1)
The half-maximal inhibitory concentration (IC50) was determined by fitting the data with a sigmoidal logistical equation using the software Origin 8.1 (Microcal Inc., Los Angeles, CA, USA).

E. coli 25922 [3] = assay: MIC by broth microdilution; format: cell-based, Escherichia coli; conditions: E. coli 25922, planktonic
Method: as §1
The antimicrobial activity of the two complexes (1) and (2) was assessed using their minimum inhibitory concentration (MIC) by the broth microdilution method, as previously described by the Clinical and Laboratory Standard Institute (CLSI; M07-A9 document). A broth microdilution assay was performed in sterile 96-well plates using Muller-Hinton broth (Scharlau; MHB). The compounds solubilized in […] (1,000 μg/mL) were serially diluted in 90 μL MHB, in concentrations ranging between 500 and 0.97 μg/mL. Overnight cultures were used to prepare suspension in phosphate-buffered saline (pH 7.0) to match a 0.5 McFarland density. The bacterial suspensions were further diluted to 1:100 by adding 0.1 mL of bacterial suspension to 9.9 mL of MHB. A volume of 10 μL of this dilution was added to each well of columns 1–10, containing different concentrations of the tested compounds. […] Additionally, 10 μL of the diluted bacterial suspension was added in column 11 (the growth control). A volume of 100 μL MHB was added to the microtiter plates’ sterility control wells (column 12). After inoculation, the plates were incubated at 35 ± 2 °C for 18 h. Growth was measured as light absorbance (620 nm) in comparison to an uninoculated well (negative control). It was detected using a microtiter plate reader (Apollo LB 911ELISA (Berthold Technologies GmbH & Co. KG, Waltham, MA, USA)). The MIC of each compound was defined as the lowest concentration required to inhibit bacterial growth.

| Compound | MBEC (E. coli 25922 [1]) | MBEC (P. aeruginosa 27853) | DNA cleavage in the presence of H2O2 (plasmid pRSII325) | DNA cleavage in the presence of ascorbate (plasmid pRSII325) | DNA cleavage, complex alone (plasmid pRSII325) | effect on viability of BJ cells ([2]; range of tested concentrations, 24 h and 48 h) | MIC (E. coli 25922 [3]) | IC50 ([2]; 24 h) | reduction of BJ cell viability at the highest concentration ([2]; 24 h) | IC50 ([2]; 24 h, read-out: IC50) | IC50 ([2]; 48 h) | reduction of BJ cell viability at the highest concentration ([2]; 48 h) | IC50 ([2]; 48 h, read-out: IC50) |
| --- | --- | --- | --- | --- | --- | --- | --- | --- | --- | --- | --- | --- | --- |
| Cc1cc(C)n2ncnc2n1.Cc1cc(C)n2ncnc2n1.Cc1cc(C)n2ncnc2n1.O.[Cu+2].[O-][Cl+3]([O-])([O-])[O-].[O-][Cl+3]([O-])([O-])[O-].c1ccc(-c2ccccn2)nc1 [Complex (1), [Cu(bpy)(dmtp)2(OH2)](ClO4)2·dmtp] | 0.71 mM | 0.71 mM | led to DNA degradation | led to DNA degradation | caused plasmid relaxation to the NC form | not affected | 710 µM | – | – | – | – | – | – |
| Cc1cc(C)n2ncnc2n1.Cc1cc(C)n2ncnc2n1.Cc1cc(C)n2ncnc2n1.O.[Cu+2].[O-][Cl+3]([O-])([O-])[O-].[O-][Cl+3]([O-])([O-])[O-].c1cnc2c(c1)ccc1cccnc12 [Complex (2), [Cu(phen)(dmtp)2(OH2)](ClO4)2·dmtp] | 0.17 mM | 0.69 mM | H2O2 strongly enhancing the nuclease activity | a higher concentration of (2) was needed for full nuclease activity | caused plasmid relaxation to the NC form | – | 340 µM | 13.61 µg/mL | up to 45% | 15 µM | 4.50 µg/mL | up to 10% | 4.97 µM |
